Drawing on patent US20050197350A1, “Novel quinoline, tetrahydroquinazoline, and pyrimidine derivatives and methods of treatment related to the use thereof” (TAISHO PHARMACEUTICAL CO., LTD., priority 2003, published 2005), this text covers class for 14 molecules.

The experiment concerns MCH receptors. The experiment is described as follows: MCH receptor activity class (method not given).
Setting [1] is: class by percent of control at 10^-7 M or IC50.
Setting [2] is: activity class 1-3: percent of control at 10^-7 M or IC50.
The mark [3] stands for this setting: MCH receptor, class by percent of control at 10^-7 M or IC50.

For the molecule `Cc1ccc(C(=O)CC(SCc2ccc(Cl)cc2)C(=O)N[C@H]2CC[C@@H](Nc3nccc(N(C)C)n3)CC2)cc1` (relative stereo) [compound 882], the class under setting [1] is reported as 3 (Class 3 The value of percent of control at 10^−7 M was more than 60% or the value of IC50 was more than 200 nM.).

Turning to `CN(C)c1ccnc(N[C@H]2CC[C@@H](NC(=O)Cc3cccc4ccccc34)CC2)n1` [compound 307, N-(cis-4-{[4-(dimethylamino)pyrimidin-2-yl]amino}cyclohexyl)-2-(1-naphthyl)acetamide], the class under setting [1] is 2 (Class 2: The value of percent of control at 10^−7 M was from 40% to 60% or the value of IC′50 was from 50 nM to 200 nM.).

As for `COc1ccc(NC(=S)N[C@H]2CC[C@@H](Nc3nc4c(c(N(C)C)n3)CCCC4)CC2)c(C)c1` [compound 1776], the class under setting [1] was 2 (Class 2: The value of percent of control at 10^−7 M was from 40% to 60% or the value of IC′50 was from 50 nM to 200 nM.).

Consider `CN(C)c1nc(N[C@H]2CC[C@@H](NC(=O)Nc3c(Cl)c(Cl)cc(Cl)c3Cl)CC2)nc2c1CCCC2` [compound 1708], for which the class under setting [2] is on record as 3 (Class 3 The value of percent of control at 10^−7 M was more than 60% or the value of IC50 was more than 200 nM.).

Regarding `CN(C)c1ccnc(N[C@H]2CC[C@@H](NC(=S)NCc3cccc4ccccc34)CC2)n1` [compound 2332], the class (MCH receptor activity class 1-3 (percent of control at 10^-7 M or IC50)) is on record as 3 (Class 3 The value of percent of control at 10^−7 M was more than 60% or the value of IC50 was more than 200 nM.).

Consider `Cc1cccc(C)c1NC(=S)N[C@H]1CC[C@@H](Nc2cc(N(C)C)c3ccccc3n2)CC1` [compound 2171], for which, under setting [1], the class is 3 (Class 3 The value of percent of control at 10^−7 M was more than 60% or the value of IC50 was more than 200 nM.).

For the molecule `CN(C)c1cc(N[C@H]2CC[C@@H](CNC(=O)Cc3ccc(F)cc3)CC2)nc2ccccc12` [compound 195], the class under setting [3] is recorded as 3 (Class 3 The value of percent of control at 10^−7 M was more than 60% or the value of IC50 was more than 200 nM.).

On to `CN(C)c1ccnc(N[C@H]2CC[C@@H](NC(=O)c3cn(Cc4ccccc4)c4ccccc34)CC2)n1` [compound 830, 1-benzyl-N-(cis-4-{[4-(dimethylamino)pyrimidin-2-yl]amino}cyclohexyl)-1H-indole-3-carboxamide], for which the class under setting [1] is 2 (Class 2: The value of percent of control at 10^−7 M was from 40% to 60% or the value of IC′50 was from 50 nM to 200 nM.).

As for `Cc1nc(N[C@H]2CC[C@@H](NC(=O)c3cccc(Cl)c3)CC2)nc(N(C)C)c1C` [compound 2838, 3-chloro-N-(cis-4-{[4-(dimethylamino)-5,6-dimethylpyrimidin-2-yl]amino}cyclohexyl)benzamide], the class (class by percent of control at 10^−7 M or IC50) was 1 (Class 1: The value of percent of control at 10^−7 M was less than 40% or the value of IC50 was less than 50 nM.).

`COc1ccc(CNC[C@H]2CC[C@@H](Nc3nc4c(c(N(C)C)n3)CCCC4)CC2)c2ccccc12` [compound 1368]: under setting [1], the class is 2 (Class 2: The value of percent of control at 10^−7 M was from 40% to 60% or the value of IC′50 was from 50 nM to 200 nM.).

As for `CN(C)c1nc(N[C@H]2CC[C@@H](CNC(=O)c3cccc(OC(F)(F)F)c3)CC2)nc2c1CCCC2` [compound 616], under setting [1], the class is listed as 3 (Class 3 The value of percent of control at 10^−7 M was more than 60% or the value of IC50 was more than 200 nM.).

As for `C=CCOC(=O)NC[C@H]1CC[C@@H](Nc2nc3c(c(N(C)C)n2)CCCC3)CC1` [compound 1610], the class under setting [2] is reported as 3 (Class 3 The value of percent of control at 10^−7 M was more than 60% or the value of IC50 was more than 200 nM.).

As to `CSc1ccc(NC(=S)N[C@H]2CC[C@@H](Nc3nc4c(c(N(C)C)n3)CCCC4)CC2)cc1` [compound 1948], the class under setting [3] is 3 (Class 3 The value of percent of control at 10^−7 M was more than 60% or the value of IC50 was more than 200 nM.).

`COc1cc(OC)c(CNC[C@H]2CC[C@@H](Nc3nccc(N(C)C)n3)CC2)c(OC)c1` [compound 1282]: under setting [1], the class is 1 (Class 1: The value of percent of control at 10^−7 M was less than 40% or the value of IC50 was less than 50 nM.).
